Experimental data published in patent US20260234112A1, “COMPOUNDS, COMPOSITIONS, AND METHODS OF USE THEREOF” (Type6 Therapeutics, Inc., priority 2023, published 2026).
pKd: −log10 of the molar value.

The compounds below were run against T1, Cdk2(2-298) (Homo sapiens, UniProt P24941) (assay: Surface Plasmon Resonance (SPR) compound interaction, Biacore 8K). Conditions: single-cycle kinetics (SCK, "S"), dissociation 1800 sec, read-out: Activity rating (KD).
T1 construct: Biotinylated N-terminal avi-tagged Cdk2(2-298) or Cdk1(1-297) was immobilized
Assay type: binding
Method: Compound interaction was profiled using a Biacore 8K instrument (Cytiva). Biotinylated N-terminal avi-tagged Cdk2(2-298) or Cdk1(1-297) was immobilized on a series S sensor Chip SA at a capture level between 2500 RU and 3000 RU (Cdk2) or 7000 RU (Cdk1) in buffer (25 mM HEPES, 150 mM NaCl, 0.05% Tween20, pH 7.5). A compound dilution plate (8 concentrations, 3-fold dilution) in DMSO was prepared (100× assay concentration). From this plate, compound DMSO stock solution was transferred into buffer, yielding a final DMSO concentration of 1% in assay. The remaining buffer was supplemented with 1% DMSO. Compounds were injected in a series of increasing concentrations in multi-cycle kinetics (MCK, “M”) or single-cycle kinetics (SCK, “S”) mode at a flow rate of 30 μl/min for 120 sec and dissociation was profiled for 180 sec (MCK) or 1800 sec (SCK). Data were analysed using Biacore Insight Evaluation Software (Cytiva).

| SMILES | pKd |
| --- | --- |
| Cc1cc(C)c(S(=O)(=O)Nc2ccc(Oc3ccncc3-c3ccnc(N[C@H]4CC[C@H](N)CC4)n3)c(F)c2)c(C)c1 [Compound 55, N-[4-[[3-[2-[(1r,4r)(4-Aminocyclohexyl)amino]pyrimidin-4-yl]-4-pyridyl]oxy]-3-fluorophenyl] 2,4,6-trimethylbenzenesulfonamide] | 6.00 to 7.00 |
| N[C@H]1CC[C@H](Nc2nccc(-c3cnccc3Oc3ccc(NS(=O)(=O)c4cccc5nccnc45)cc3F)n2)CC1 [Compound 56, N-[4-[[3-[2-[(1r,4r)(4-Aminocyclohexyl)amino]pyrimidin-4-yl]-4-pyridyl]oxy]-3-fluorophenyl] quinoxalin-5-ylsulfonamide] | 6.00 to 7.00 |
| N[C@H]1CC[C@H](Nc2nccc(-c3cnccc3Oc3ccc(NS(=O)(=O)c4cccc5c4CCCC5)cc3F)n2)CC1 [Compound 57] | 6.00 to 7.00 |
| N[C@H]1CC[C@H](Nc2nccc(-c3cnccc3Oc3ccc(NS(=O)(=O)c4cc(Cl)c(Br)cc4F)cc3F)n2)CC1 [Compound 58, N-[4-[[3-[2-[(1r,4r)(4-Aminocyclohexyl)amino]pyrimidin-4-yl]-4-pyridyl]oxy]-3-fluorophenyl] 4-bromo-5-chloro-2-fluorobenzenesulfonamide] | 7.00 to 7.96 |
| O=S(=O)(Nc1ccc(Oc2ccncc2-c2ccnc(N[C@H]3CCCNC3)n2)c(F)c1)c1ccccc1 [Compound 59, N-[3-Fluoro-4-[[3-[2-[[(3S)-3-piperidyl]amino]pyrimidin-4-yl]-4-pyridyl]oxy]phenyl] benzenesulfonamide] | 7.00 to 7.96 |
| N[C@H]1CC[C@H](Nc2nccc(-c3cnccc3Oc3cc(Cl)c(NS(=O)(=O)C4CC4)cc3F)n2)CC1 [Compound 60, N-[4-[[3-[2-[(1r,4r)(4-Aminocyclohexyl)amino]pyrimidin-4-yl]-4-pyridyl]oxy]-2-chloro-5-fluorophenyl] cyclopropylsulfonamide] | 5.30 to 6.00 |
| N[C@H]1CC[C@H](Nc2nccc(-c3cnccc3Oc3ccc(NS(=O)(=O)c4ccccc4)c(Cl)c3)n2)CC1 [Compound 61, N-[4-[[3-[2-[(1r,4r)(4-Aminocyclohexyl)amino]pyrimidin-4-yl]-4-pyridyl]oxy]-2-chiorophenyl] benzenesulfonamide] | 6.00 to 7.00 |
| N[C@H]1CC[C@H](Nc2nccc(-c3cnccc3Oc3ccc(NS(=O)(=O)c4ccccc4)c(Br)c3)n2)CC1 [Compound 62, N-[4-[[3-[2-[(1r,4r)(4-Aminocyclohexyl)amino]pyrimidin-4-yl]-4-pyridyl]oxy]-2-bromophenyl] benzenesulfonamide] | 6.00 to 7.00 |
| N[C@H]1CC[C@H](Nc2nccc(-c3cnccc3Oc3cc(Cl)c(NS(=O)(=O)c4ccccc4)c(Cl)c3)n2)CC1 [Compound 63, N-[4-[[3-[2-[(1r,4r)(4-Aminocyclohexyl)amino]pyrimidin-4-yl]-4-pyridyl]oxy]-2,6-dichlorophenyl] benzenesulfonamide] | 5.30 to 6.00 |
| N[C@H]1CC[C@H](Nc2nccc(-c3cnccc3Oc3ccc(NS(=O)(=O)c4ccccc4F)cc3F)n2)CC1 [Compound 64, N-[4-[[3-[2-[(1r,4r)(4-Aminocyclohexyl)amino]pyrimidin-4-yl]-4-pyridyl]oxy]-3-fluorophenyl] 2-fluorobenzenesulfonamide] | ≥ 8.00 |
| N[C@H]1CC[C@H](Nc2nccc(-c3cnccc3Oc3ccc(NS(=O)(=O)c4ccccc4I)cc3F)n2)CC1 [Compound 65, N-[4-[[3-[2-[(1r,4r)(4-Aminocyclohexyl)amino]pyrimidin-4-yl]-4-pyridyl]oxy]-3-fluorophenyl] 2-iodobenzenesulfonamide] | ≥ 8.00 |
| CC(C)(C)c1ccccc1S(=O)(=O)Nc1ccc(Oc2ccncc2-c2ccnc(N[C@H]3CC[C@H](N)CC3)n2)c(F)c1 [Compound 66, N-[4-[[3-[2-[(1r,4r)(4-Aminocyclohexyl)amino]pyrimidin-4-yl]-4-pyridyl]oxy]-3-fluorophenyl] 2-tert-butylbenzenesulfonamide] | 6.00 to 7.00 |
| N#Cc1ccccc1S(=O)(=O)Nc1ccc(Oc2ccncc2-c2ccnc(N[C@H]3CC[C@H](N)CC3)n2)c(F)c1 [Compound 67, N-[4-[[3-[2-[(1r,4r)(4-Aminocyclohexyl)amino]pyrimidin-4-yl]-4-pyridyl]oxy]-3-fluorophenyl] 2-cyanobenzenesulfonamide] | ≥ 8.00 |
| N[C@H]1CC[C@H](Nc2nccc(-c3cnccc3Oc3ccc(NS(=O)(=O)C4CCCCC4)cc3F)n2)CC1 [Compound 68, N-[4-[[3-[2-[(1r,4r)(4-Aminocyclohexyl)amino]pyrimidin-4-yl]-4-pyridyl]oxy]-3-fluorophenyl] cyclohexylsulfonamide] | 6.00 to 7.00 |
| N[C@H]1CC[C@H](Nc2nccc(-c3cnccc3Oc3ccc(NS(=O)(=O)c4cccc5ccccc45)cc3F)n2)CC1 [Compound 69, N-[4-[[3-[2-[(1r,4r)(4-Aminocyclohexyl)amino]pyrimidin-4-yl]-4-pyridyl]oxy]-3-fluorophenyl] naphthalene-1-sulfonamide] | 7.00 to 7.96 |
| O=S(=O)(Nc1ccc(Oc2ccncc2-c2ccnc(N[C@H]3CCCNC3)n2)c(F)c1)c1cccc2ccccc12 [Compound 70, N-[3-Fluoro-4-[[3-[2-[[(3S)-3-piperidyl]amino]pyrimidin-4-yl]-4-pyridyl]oxy]phenyl] naphthalene-1-sulfonamide] | ≥ 8.00 |
| CCc1ccccc1S(=O)(=O)Nc1ccc(Oc2ccncc2-c2ccnc(N[C@H]3CC[C@H](N)CC3)n2)c(F)c1 [Compound 71, N-[4-[[3-[2-(1r,4r)[(4-Aminocyclohexyl)amino]pyrimidin-4-yl]-4-pyridyl]oxy]-3-fluorophenyl] 2-ethylbenzenesulfonamide] | ≥ 8.00 |
| N[C@H]1CC[C@H](Nc2nccc(-c3cnccc3Oc3ccc(NS(=O)(=O)c4ccccc4-c4ccccc4)cc3F)n2)CC1 [Compound 72, N-[4-[[3-[2-(1r,4r)[(4-Aminocyclohexyl)amino]pyrimidin-4-yl]-4-pyridyl]oxy]-3-fluorophenyl] 2-phenylbenzenesulfonamide] | 7.00 to 7.96 |
| C#Cc1ccccc1S(=O)(=O)Nc1ccc(Oc2ccncc2-c2ccnc(N[C@H]3CC[C@H](N)CC3)n2)c(F)c1 [Compound 73, N-[4-[[3-[2-(1r,4r)[(4-Aminocyclohexyl)amino]pyrimidin-4-yl]-4-pyridyl]oxy]-3-fluorophenyl] 2-ethynylbenzenesulfonamide] | 7.00 to 7.96 |

Results, then the compound that gave them:

| pKd | SMILES |
| --- | --- |
| < 5.30 | N[C@H]1CC[C@H](Nc2nccc(-c3cnccc3Oc3ccc(NS(=O)(=O)C45CC6CC(CC(C6)C4)C5)cc3F)n2)CC1 [Compound 74, N-[4-[[3-[2-(1r,4r)[(4-Aminocyclohexyl)amino]pyrimidin-4-yl]-4-pyridyl]oxy]-3-fluorophenyl] adamant-1-ylsulfonamide] |
| 6.00 to 7.00 | N[C@H]1CC[C@H](Nc2nccc(-c3cnccc3Oc3ccc(NS(=O)(=O)C4CC5CCC4C5)cc3F)n2)CC1 (stereo partly drawn) [Compound 75, N-[4-[[3-[2-(1r,4r)[(4-Aminocyclohexyl)amino]pyrimidin-4-yl]-4-pyridyl]oxy]-3-fluorophenyl] [R,S]-exo-norborn-2-ylsulfonamide] |
| 6.00 to 7.00 | CN(C)[C@H]1CC[C@H](Nc2nccc(-c3cnccc3Oc3ccc(NC(=O)c4ccccc4Cl)cc3F)n2)CC1 [Compound 76, N-[4-[[3-[2-[(1r,4r)(4-(N,N-Dimethylamino)cyclohexyl)amino]pyrimidin-4-yl]-4-pyridyl]oxy]-3-fluorophenyl] 2-chlorobenzamide] |
| 7.00 to 7.96 | CN1CCC(Nc2nccc(-c3cnccc3Oc3ccc(NS(=O)(=O)c4ccccc4Cl)cc3F)n2)CC1 [Compound 77, N-[3-Fluoro-4-[[3-[2-[[N-methylpiperid-4-yl]amino]pyrimidin-4-yl]-4-pyridyl]oxy]phenyl] 2-chlorobenzenesulfonamide] |
| 7.00 to 7.96 | CN(C)[C@H]1CC[C@H](Nc2nccc(-c3cnccc3Oc3ccc(NS(=O)(=O)c4ccccc4Cl)cc3F)n2)CC1 [Compound 78, N-[4-[[3-[2-[(1r,4r)(4-(N,N-Dimethylamino)cyclohexyl)amino]pyrimidin-4-yl]-4-pyridyl]oxy]-3-fluorophenyl] 2-chlorobenzenesulfonamide] |
| ≥ 8.00 | N[C@H]1CC[C@H](Nc2nccc(-c3cnccc3Oc3ccc(NS(=O)(=O)c4ccccc4Cl)c(F)c3)n2)CC1 [Compound 79, N-[4-[[3-[2-[(1r,4r)(4-Aminocyclohexyl)amino]pyrimidin-4-yl]-4-pyridyl]oxy]-2-fluorophenyl] 2-chlorobenzenesulfonamide] |
| 6.00 to 7.00 | N[C@H]1CC[C@H](Nc2nccc(-c3cnccc3Oc3ccc(NS(=O)(=O)c4ccc(CO)cc4F)cc3F)n2)CC1 [Compound 81] |
| 6.00 to 7.00 | N[C@H]1CC[C@H](Nc2nccc(-c3cnccc3Oc3ccc(NS(=O)(=O)c4ccc(CO)cc4F)c(F)c3)n2)CC1 [Compound 82, N-82[4-[[3-[2-(1r,4r)[(4-Aminocyclohexyl)amino]pyrimidin-4-yl]-4-pyridyl]oxy]-2-fluorophenyl] 2-fluoro-4-(hydroxymethyl)benzenesulfonamide] |
| 6.00 to 7.00 | N[C@H]1CC[C@H](Nc2nccc(-c3cnccc3Oc3ccc(NS(=O)(=O)c4ccc(CCO)cc4F)cc3F)n2)CC1 [Compound 83, N-[4-[[3-[2-(1r,4r)[(4-Aminocyclohexyl)amino]pyrimidin-4-yl]-4-pyridyl]oxy]-3-fluorophenyl] 2-fluoro-4-(2-hydroxyethyl)benzenesulfonamide] |
| 6.00 to 7.00 | N[C@H]1CC[C@H](Nc2nccc(-c3cnccc3Oc3ccc(NS(=O)(=O)c4ccc(CCO)cc4F)c(F)c3)n2)CC1 [Compound 84, N-[4-[[3-[2-(1r,4r)[(4-Aminocyclohexyl)amino]pyrimidin-4-yl]-4-pyridyl]oxy]-2-fluorophenyl] 2-fluoro-4-(2-hydroxyethyl)benzenesulfonamide] |
